Source: patent US8298994B2, “Substituted 1-(diazinyl)pyrazol-4-ylacetic acids, processes for their preparation and their use as herbicides and plant growth regulators” (Bayer Cropscience AG, priority 2008, dated 2012)

Assays:
[1] = system: harmful plants such as Alopecurus myosuroides, Echinochloa crus galli, Setaria viridis and Veronica persica; experiment: Pre-emergence herbicidal effect (greenhouse pot test, visual scoring); assay type: in vivo; conditions: pre-emergence method, application rate of 0.32 kg of active substance per hectare, scored visually after about 3 weeks
Description: 1. Pre-emergence Herbicidal Effect and Crop Plant Compatibility
Seeds of monocotyledonous or dicotyledonous weeds or crop plants are placed in sandy loam soil in wood-fiber pots and covered with soil. The compounds (I) according to the invention, formulated in the form of wettable powders (WP), are then applied to the surface of the soil cover in the form of an aqueous suspension or emulsion at a water application rate of 600 I/ha (converted), with addition of 0.2% wetting agent.
Following the treatment, the pots are placed in the greenhouse and kept under good growth conditions for the test plants. After about 3 weeks, the activity of the preparations is scored visually in comparison to untreated controls (herbicidal activity in percent (%): 100% activity=the plants have died, 0% activity=like control plants).

[2] = system: harmful plants such as Avena fatua, Echinochloa crus galli, Lolium multiflorum, Setaria viridis, Veronica persica, Viola tricolor and Alopecurus myosuroides; experiment: Post-emergence herbicidal effect (greenhouse pot test, visual scoring); assay type: in vivo; conditions: post-emergence method, application rate of 0.32 kg or less of active substance per hectare, scored visually after about 3 weeks
Protocol: 2. Post-emergence Herbicidal Effect and Crop Plant Compatibility
Seeds of monocotyledonous and dicotyledonous weeds and crop plants are placed in sandy loam soil in wood-fiber pots, covered with soil, and cultivated in a greenhouse under good growth conditions. 2 to 3 weeks after sowing, the test plants are treated at the one-leaf stage. The compounds (I) according to the invention, formulated as wettable powders (WP), are then sprayed onto the green parts of the plants as an aqueous suspension or emulsion at a water application rate of 600 I/ha (converted), with addition of 0.2% wetting agent. The test plants are allowed to stand in a greenhouse for about 3 weeks under optimum growth conditions, and the effect of the preparations is then scored visually by comparison with untreated controls (herbicidal activity in percent (%): 100% activity=the plants have died, 0% activity=like control plants).

SMILES | herbicidal activity [1] | herbicidal activity [2]
Cc1nn(-c2cncnc2)c(-c2ccc(Cl)cc2)c1CC(=O)O [Compound 1-28] | good herbicidal activity | good herbicidal activity
Cc1nn(-c2cncnc2)c(-c2ccc(Cl)cn2)c1CC(=O)O [Compound 1-116] | good herbicidal activity | good herbicidal activity
Cc1nn(-c2cncnc2)c(-c2ccc(Br)cn2)c1CC(=O)O [Compound 1-119] | good herbicidal activity | good herbicidal activity
COc1ccnc(-c2c(CC(=O)O)c(C)nn2-c2cncnc2)c1 [Compound 1-154] | good herbicidal activity | good herbicidal activity
Cc1cc(C)nc(-c2c(CC(=O)O)c(C)nn2-c2cncnc2)c1 [Compound 1-210] | good herbicidal activity | good herbicidal activity
Cc1cnc(-c2c(CC(=O)O)c(C)nn2-c2cncnc2)cn1 [Compound 1-214] | good herbicidal activity | good herbicidal activity
Cc1nn(-c2cncnc2)c(-c2cc3ccccc3cn2)c1CC(=O)O [Compound 1-236] | good herbicidal activity | good herbicidal activity
COC(=O)Cc1c(C)nn(-c2cncnc2)c1-c1ccccc1 [Compound 2-2] | good herbicidal activity | good herbicidal activity
COC(=O)Cc1c(C)nn(-c2cncnc2)c1-c1ccc(C)cc1 [Compound 2-16] | good herbicidal activity | good herbicidal activity
COC(=O)Cc1c(C)nn(-c2cncnc2)c1-c1ccc(Cl)cc1 [Compound 2-28] | good herbicidal activity | good herbicidal activity
COC(=O)Cc1c(C)nn(-c2cncnc2)c1-c1cc(C)cc(C)c1 [Compound 2-47] | good herbicidal activity | good herbicidal activity
COC(=O)Cc1c(C)nn(-c2cncnc2)c1-c1cc(C)cs1 [Compound 2-64] | good herbicidal activity | good herbicidal activity
COC(=O)Cc1c(C)nn(-c2cncnc2)c1-c1ccc(Cl)s1 [Compound 2-65] | good herbicidal activity | good herbicidal activity
COC(=O)Cc1c(C)nn(-c2cncnc2)c1-c1ccccn1 [Compound 2-116, Methyl[3-methyl-5-(pyridin-2-yl)-1-(pyrimidin-5-yl)-1H-pyrazol-4-yl]acetate] | good herbicidal activity | good herbicidal activity
COC(=O)Cc1c(C)nn(-c2cncnc2)c1-c1ccc(Cl)cn1 [Compound 2-117] | good herbicidal activity | good herbicidal activity
COC(=O)Cc1c(C)nn(-c2cncnc2)c1-c1ccc(Br)cn1 [Compound 2-120] | good herbicidal activity | good herbicidal activity
COC(=O)Cc1c(C)nn(-c2cncnc2)c1-c1ccc(C)cn1 [Compound 2-124] | good herbicidal activity | good herbicidal activity
COC(=O)Cc1c(C)nn(-c2cncnc2)c1-c1ccc(F)cc1 [Compound 2-132] | good herbicidal activity | good herbicidal activity
COC(=O)Cc1c(C)nn(-c2cncnc2)c1-c1ccc(Cl)c(C)c1 [Compound 2-135] | good herbicidal activity | good herbicidal activity
COC(=O)Cc1c(C)nn(-c2cncnc2)c1-c1cc(C)ccn1 [Compound 2-148] | good herbicidal activity | good herbicidal activity

SMILES | herbicidal activity [1] | herbicidal activity [2]
COC(=O)Cc1c(C)nn(-c2cncnc2)c1-c1cc(OC)ccn1 [Compound 2-155] | good herbicidal activity | good herbicidal activity
COC(=O)Cc1c(C)nn(-c2cncnc2)c1-c1cnc(C)cn1 [Compound 2-215] | good herbicidal activity | good herbicidal activity
COC(=O)Cc1c(C)nn(-c2cncnc2)c1-c1nc2ccccc2s1 [Compound 2-217] | good herbicidal activity | good herbicidal activity
COC(=O)Cc1c(C)nn(-c2cncnc2)c1-c1ncccn1 [Compound 2-224] | good herbicidal activity | good herbicidal activity
COC(=O)Cc1c(C)nn(-c2cncnc2)c1-c1ccc(Br)cc1 [Compound 2-240] | good herbicidal activity | good herbicidal activity
COC(=O)Cc1c(C)nn(-c2cncnc2)c1-c1cc2ccccc2cn1 [Compound 2-241] | good herbicidal activity | good herbicidal activity
COC(=O)Cc1c(C)nn(-c2cncnc2)c1-c1ccc([N+](=O)[O-])cc1 [Compound 2-243] | good herbicidal activity | good herbicidal activity
C=CCc1ccc(-c2c(CC(=O)OC)c(C)nn2-c2cncnc2)nc1 [Compound 2-249] | good herbicidal activity | good herbicidal activity
CCOC(=O)Cc1c(C)nn(-c2cncnc2)c1-c1ccc(Cl)cc1 [Compound 3-4] | good herbicidal activity | good herbicidal activity
CCOC(=O)Cc1c(C)nn(-c2cncnc2)c1-c1ccc(Cl)cn1 [Compound 3-25] | good herbicidal activity | good herbicidal activity
CCOC(=O)Cc1c(C)nn(-c2cncnc2)c1-c1ccc(Br)cn1 [Compound 3-26] | good herbicidal activity | good herbicidal activity
CCOC(=O)Cc1c(C)nn(-c2cncnc2)c1-c1cc(C)ccn1 [Compound 3-36] | good herbicidal activity | –
C#CCOC(=O)Cc1c(C)nn(-c2cncnc2)c1-c1ccc(Cl)cn1 [Compound 3-112] | good herbicidal activity | good herbicidal activity
Cc1nn(-c2cncnc2)c(-c2ccc(Cl)cc2)c1CC(=O)OCC1CC1 [Compound 3-121] | good herbicidal activity | good herbicidal activity
Cc1nn(-c2cncnc2)c(-c2ccc(Cl)cn2)c1CC(=O)OCC1CC1 [Compound 3-135] | good herbicidal activity | good herbicidal activity
Cc1nn(-c2cncnc2)c(-c2ccc(Br)cn2)c1CC(=O)OCC1CC1 [Compound 3-136] | – | good herbicidal activity
CC#CCOC(=O)Cc1c(C)nn(-c2cncnc2)c1-c1ccc(Cl)cc1 [Compound 3-161] | good herbicidal activity | good herbicidal activity
CC#CCOC(=O)Cc1c(C)nn(-c2cncnc2)c1-c1ccc(Br)cn1 [Compound 3-176] | good herbicidal activity | good herbicidal activity
Cc1nn(-c2cncnc2)c(-c2ccc(Cl)cn2)c1CC(=O)OCC(F)F [Compound 3-353] | good herbicidal activity | good herbicidal activity
